Patent US20190105367A1, “ANTIMICROBIAL 4-OXOQUINOLIZINES” (Emergent Product Development Gaithersburg Inc., priority 2011, published 2019)
In brackets after ≈: the same amount, converted by molar mass. Several values for one entry are separate records, joined by “and”; a condition that tells them apart may be missing. Equal values may be shown once. Read-outs that look alike come from different tables or passages of the source.

Experiments:
[1] = tested on: A. baumannii A14; experiment: Preliminary MBC without and with sub-inhibitory polymyxin B (Example 4); assay type: cell-based, Acinetobacter baumannii; settings: for MBC +0.06 μg/ml PB: +0.06 μg/ml polymyxin B; for MBC: Acinetobacter baumannii
[2] = tested on: Acinetobacter sp. (H064200250); experiment: as above; assay type: cell-based
Protocol: The plates were incubated for 18-20 hours at 37° C. The MBC was read as the lowest concentration at which colony growth was ca. 90% less than the positive control (i.e. usually where single colonies or no colonies were observed).

[3] = tested on: A. baumannii J2; experiment: as above; assay type: cell-based, Acinetobacter baumannii
[4] = tested on: A. baumannii A14; experiment: MIC without and with sub-inhibitory polymyxin B (Example 4); assay type: cell-based, Acinetobacter baumannii; settings: 1st experiment; for MIC +0.06 μg/ml PB: +0.06 μg/ml polymyxin B; for MIC without PB/MIC + PB: ratio, PB 0.06 μg/ml
[5] = Cytotoxicity (Example 7); assay type: cell-based; settings: human, HEPG2 V1 cells
Protocol: The 4-oxoquinolizine compounds of the invention preferably have a low cytotoxicity against human cells. […].
Cytotoxicity was determined for the instant 4-oxoquinolizine compounds which show low cytotoxicity. (see Table 17 following). […]

[6] = tested on: B. thailandensis; assay type: cell-based, Burkholderia thailandensis; settings: pH 7 vs pH 5
[7] = tested on: A. baumanii 19606; experiment: MIC, standard panel of Gram-positive and Gram-negative strains (Example 2); assay type: cell-based; settings: Acinetobacter baumannii
[8] = tested on: E. faecalis 29212; experiment: as above; assay type: cell-based, Enterococcus faecalis; settings: Enterococcus faecalis, 29212; read-out: MIC E. faecalis 29212
[9] = tested on: S. aureus SMITH; experiment: MIC, panel of quinolone-resistant strains (Example 2); assay type: cell-based; settings: Staphylococcus aureus; CIP R; read-out: MIC S. aureus SMITH
[10] = tested on: GN31 Acinetobacter baumannii antibiotic susceptible isolate; experiment: Chequerboard synergy with polymyxin B, FICI (Example 6); assay type: cell-based
Source text: (§1) A chequerboard technique was used to identify possible synergistic or antagonistic interactions between the 4-oxoquinolizines compounds, levofloxacin and polymyxin B. Levofloxacin was included as a control. […] Final dilutions were made in Mueller-Hinton broth, the specific test medium used for MIC determinations according to CLSI guidelines (CLSI. Methods for Dilution Antimicrobial Susceptibility Tests for Bacteria That Grow Aerobically; Approved Standard-Eighth Edition (2009). CLSI Document M07-A8. CLSI, Wayne, Pa. 19087-1898, USA.). The test medium used was a cation-adjusted Mueller-Hinton Broth II (Becton Dickinson UK Ltd., Oxford Science Park, Oxford, UK, OX4 4DQ).
(§2) The compounds 2, 33 and 35, as well as levofloxacin were tested in combination with polymyxin B on the following isolates: GN31 Acinetobacter baumannii—antibiotic susceptible clinical isolate, GN52 Acinetobacter baumannii—levofloxacin resistant clinical isolate, GN56 Acinetobacter baumannii—levofloxacin resistant clinical isolate, GN48 Klebsiella pneumoniae—NCTC 13443—NDM-1-metallo-β-lactamase and GN10 Pseudomonas aeruginosa—ATCC 27853—antibiotic susceptible reference isolate. All isolates are from the collection maintained at Quotient Bioresearch Ltd., Cambridge, UK.
(§3) The MIC values for the compounds and polymyxin B and levofloxacin were determined by broth microdilution following CLSI guidelines, and the MICs of agents in combination were determined as described by Pillai et. al (Pillai S K, Moellering R C Jr, Eliopoulis G M; Antimicrobial Combinations in Antibiotics in Laboratory Medicine 5th Edition (V. Lorian Ed) (2005) p 365-440). Initial MIC results were used to determine the microtiter plate patterns for the chequerboards. A suitable doubling dilution concentration range was selected such that the combination antibiotic range was at least two concentrations above and four concentrations below the MIC for each isolate. A fixed range of 0.008 to 8 mg/L was tested for polymyxin B except in the case of A. baumannii GN31 where a range of 0.004 to 4 mg/L was tested when in combination with the compounds 2, 33 and 35 as well as levofloxacin.
(§4) From the raw data, fractional inhibitory concentration indices (FICI) were determined for the compounds of the invention and levofloxacin together with polymyxin B for each isolate as follows:
(§5) FICX=concentration of the combination antibiotic in a particular row MIC of the combination drug alone
(§6) FICY=MIC of polymyxin B in combination[…]MIC of the polymyxin B alone
(§7) Additionally isobolograms were created to represent the same data visually. Here, the MIC of polymyxin B was plotted against every concentration of the combination antibiotic up to the MIC.

[11] = tested on: GN52 Acinetobacter baumannii levofloxacin resistant clinical isolate; experiment: as above; assay type: cell-based
Source text: as §1, §2, §3, §4, §5, §6, §7

[12] = tested on: GN56 Acinetobacter baumannii levofloxacin resistant clinical isolate; experiment: as above; assay type: cell-based
Source text: as §1, §2, §3, §4, §5, §6, §7

[13] = tested on: GN48 Klebsiella pneumoniae NCTC 13443 NDM-1-β-lactamase producing isolate; experiment: as above; assay type: cell-based
Source text: as §1, §2, §3, §4, §5, §6, §7

[14] = A. baumannii A14, preliminary MBC, 1st experiment
[15] = Acinetobacter, Acinetobacter spp. H064200250 (OXA51), +[…] PB, preliminary MBC, 2nd experiment, read-out: MBC
[16] = Acinetobacter, read-out: MBC +[…] PB, Acinetobacter spp. H064200250, +[…] polymyxin B, preliminary MBC, 1st experiment
[17] = Acinetobacter baumannii, J2, A. baumannii J2, +[…] PB, preliminary MBC, 2nd experiment, read-out: MBC
[18] = Acinetobacter baumannii, J2, read-out: MBC +[…] PB, A. baumannii J2, +[…] polymyxin B, preliminary MBC, 1st experiment
[19] = A. baumannii A14, without polymyxin B, preliminary MBC, 1st experiment, read-out: MBC without PB
[20] = in combination with polymyxin B
[21] = polymyxin B with the named antibiotic
[22] = Acinetobacter spp. H064200250 (OXA51), +[…] PB, preliminary MBC, 2nd experiment

Compound: NCC[C@H](O)C(=O)N[C@@H]1C[C@H](N)[C@@H](O[C@H]2O[C@H](CN)[C@@H](O)[C@H](O)[C@H]2O)[C@H](O)[C@H]1O[C@H]1O[C@H](CO)[C@@H](O)[C@H](N)[C@H]1O [Amikacin, reference compound]
- MBC +0.06 μg/ml PB [1, 14]: 16 µg/mL
- MBC [2, 15]: 1 µg/mL (≈ 1.71 µM)
- MBC [2, 16]: 64 µg/mL (≈ 109 µM)
- MBC [3, 17]: 0.5 µg/mL (≈ 0.854 µM)
- MBC [3, 18]: 4 µg/mL (≈ 6.83 µM)
- MIC +0.06 μg/ml PB [4]: 16 µg/mL
- MIC without PB/MIC + PB [4]: 2

Compound: Cc1c(-c2ccc(N)c(F)c2)ccn2c(=O)c(C(=O)O)cc(C3CC3)c12 [Compound 1, 8-(3-fluoro-4-amino-phenyl)-1-cyclopropyl-9-methyl-4-oxo-quinolizine-3-carboxylic acid]
- MBC +0.06 μg/ml PB [1, 14]: 0.06 µg/mL
- MBC [1, 19]: 32 µg/mL (≈ 90.8 µM)
- IC50 [5]: 500 µM
- MBC ([2]; Acinetobacter): ≤ 0.03 µg/mL
- MBC [2, 16]: 0.25 µg/mL (≈ 0.709 µM)
- MBC [3, 18]: ≤ 0.03 µg/mL
- MIC +0.06 μg/ml PB [4]: 0.06 µg/mL
- MIC ([4]; Acinetobacter baumannii, 24 h, without polymyxin B, read-out: MIC without PB): 32 µg/mL (≈ 90.8 µM)
- MIC without PB/MIC + PB [4]: 512
- Dilutions improvement shift on B. thailandensis MIC90 (between pH 7 and pH 5) [6]: Yes, 4x

Compound: Cc1c(-c2ccc(N)cc2)c(F)cn2c(=O)c(C(=O)O)cc(C3CC3)c12 [Compound 7, 8-(4-amino-phenyl)-1-cyclopropyl-7-fluoro-9-methyl-4-oxo-quinolizine-3-carboxylic acid]
- MBC ([1]; A14, read-out: MBC +0.06 μg/ml PB): 1 µg/mL (≈ 2.84 µM)
- MBC [1, 19]: 16 µg/mL (≈ 45.4 µM)
- MIC [7]: 0.5 µg/mL (≈ 1.42 µM)
- IC50 [5]: 150 µM
- MBC [2, 15]: ≤ 0.03 µg/mL
- MBC [2, 16]: 0.25 µg/mL (≈ 0.709 µM)
- MBC [3, 17]: ≤ 0.03 µg/mL
- MBC [3, 18]: ≤ 0.03 µg/mL
- MIC +0.06 μg/ml PB [4]: 1 µg/mL
- MIC without PB/MIC + PB [4]: 32
- Dilutions improvement shift on B. thailandensis MIC90 (between pH 7 and pH 5) [6]: Yes, 4x
- MIC [8]: 0.06 µg/mL (≈ 0.17 µM)
- MIC [9]: 0.25 µg/mL (≈ 0.709 µM)

Compound: C[C@H]1COc2c(N3CCN(C)CC3)c(F)cc3c(=O)c(C(=O)O)cn1c23 [Levofloxacin, reference compound]
- Combination drug MIC alone [10]: 0.06 µg/mL
- FICx [10]: 0.13
- FICy [10]: 1.00
- FICI ([10]; combination with polymyxin B): 1.13
- Synergy ([10]; combination with polymyxin B): Indifferent (indifference (FICI 0.76 to 2.75))
- Combination drug concentration in combination [10, 20]: 0.008 mg/L
- Polymyxin B MIC in combination [10, 21]: 0.5 µg/mL
- Combination drug MIC alone [11]: 8 µg/mL
- FICx [11]: 0.13
- FICy [11]: 1.00
- FICI ([11]; combination with polymyxin B): 1.13
- Synergy ([11]; combination with polymyxin B): Indifferent (indifference (FICI 0.76 to 2.75))
- Combination drug concentration in combination [11, 20]: 1 mg/L
- Polymyxin B MIC in combination [11, 21]: 0.5 µg/mL
- Combination drug MIC alone [12]: 32 µg/mL
- FICx [12]: 0.13
- FICy [12]: 1.00
- FICI ([12]; combination with polymyxin B): 1.13
- Synergy ([12]; combination with polymyxin B): Indifferent (indifference (FICI 0.76 to 2.75))
- Combination drug concentration in combination [12, 20]: 4 mg/L
- Polymyxin B MIC in combination [12, 21]: 0.5 µg/mL
- Combination drug MIC alone [13]: 64 µg/mL
- FICx [13]: 0.13
- FICy [13]: 1.00
- FICI ([13]; combination with polymyxin B): 1.13
- Synergy ([13]; combination with polymyxin B): Indifferent (indifference (FICI 0.76 to 2.75))
- Combination drug concentration in combination [13, 20]: 8 mg/L
- Polymyxin B MIC in combination [13, 21]: 0.5 µg/mL
- MBC +0.06 μg/ml PB [1, 14]: 32 µg/mL
- MBC [2, 15]: 8 µg/mL (≈ 22.1 µM)
- MBC [3, 17]: 4 µg/mL (≈ 11.1 µM)
- MBC ([3]; Acinetobacter baumannii, J2, read-out: MBC +[…] PB): 8 µg/mL (≈ 22.1 µM)
- MIC +0.06 μg/ml PB [4]: 32 µg/mL
- MIC without PB/MIC + PB [4]: 1

Compound: C[C@@H](O)[C@H]1C(=O)N2C(C(=O)O)=C(S[C@@H]3CN[C@H](C(=O)N(C)C)C3)[C@H](C)[C@H]12 [Meropenem]
- MBC +0.06 μg/ml PB [1, 14]: 0.5 µg/mL
- MBC [2, 15]: 0.25 µg/mL (≈ 0.652 µM)
- MBC [2, 16]: 1 µg/mL (≈ 2.61 µM)
- MBC [3, 17]: ≤ 0.125 µg/mL
- MBC [3, 18]: 1 µg/mL (≈ 2.61 µM)
- MIC +0.06 μg/ml PB [4]: 0.5 µg/mL

Compound: COc1c(N2C[C@@H]3CCCN[C@@H]3C2)c(F)cc2c(=O)c(C(=O)O)cn(C3CC3)c12 [Moxifloxacin]
- MBC +0.06 μg/ml PB [1, 14]: 32 µg/mL
- MBC [2, 22]: 16 µg/mL (≈ 39.9 µM)
- MBC ([3]; Acinetobacter baumannii, J2, A. baumannii J2, +[…] PB, preliminary MBC, 2nd experiment): 8 µg/mL (≈ 19.9 µM)
- MBC [3, 18]: 8 µg/mL (≈ 19.9 µM)
- MIC +0.06 μg/ml PB [4]: 32 µg/mL
- MIC without PB/MIC + PB [4]: 1

Compound: Polymyxin B [reference compound]
- Polymyxin B MIC alone [10]: 0.25 µg/mL and 0.5 µg/mL
- Polymyxin B MIC alone [11]: 0.5 µg/mL
- Polymyxin B MIC alone [12]: 0.5 µg/mL
- Polymyxin B MIC alone [13]: 0.5 µg/mL
- MBC +0.06 μg/ml PB [1, 14]: 0.5 µg/mL
- MBC without PB ([1]; A. baumannii A14, without polymyxin B, preliminary MBC, 1st experiment): 0.5 µg/mL
- MBC [2, 22]: 0.25 µg/mL
- MBC ([2]; Acinetobacter spp. H064200250 (OXA51), without PB, preliminary MBC, 2nd experiment): 0.25 µg/mL
- MBC +[…] PB ([2]; Acinetobacter spp. H064200250, +[…] polymyxin B, preliminary MBC, 1st experiment): 0.5 µg/mL
- MBC without PB ([2]; Acinetobacter spp. H064200250, without polymyxin B, preliminary MBC, 1st experiment): 0.5 µg/mL
- MBC ([3]; A. baumannii J2, +[…] PB, preliminary MBC, 2nd experiment): ≤0.125 µg/mL
- MBC +[…] PB ([3]; A. baumannii J2, +[…] polymyxin B, preliminary MBC, 1st experiment): 0.5 µg/mL
- MBC ([3]; A. baumannii J2, without PB, preliminary MBC, 2nd experiment): 0.5 µg/mL
- MBC without PB ([3]; A. baumannii J2, without polymyxin B, preliminary MBC, 1st experiment): 0.5 µg/mL
- MIC +0.06 μg/ml PB [4]: 0.5 µg/mL
- MIC without PB/MIC + PB [4]: 1
- MIC without PB ([4]; without polymyxin B): 0.5 µg/mL
